# Results published in PubChem BioAssay AID2060511 (Molecular Pharmacology Branch, DTP, NCI, 2025).
# Tested on: 422866-222-R5-J1-PDC spheroids with HUVEC/MSC, viability
# Experiment: Anticancer human tumor 422866-222-R5-J1-PDC patient-derived pancreatic adenocarcinoma cell line growth inhibition [GQUAD]
# Conditions: for IC50: curve of first compound; for viability, T/C: stronger effect = lower value
# Outline: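 Tumor cells were grown as complex spheroids with HUVEC endothelial cells and mesenchymal stem cells as stroma. G-quadruplex stabilizers were combined with targeted agents over half-log dilutions from near the clinical Cmax, or from 10 microM.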
# [1] = second compound 0.0316 µM, first compound 0.0316 µM
# [2] = second compound 0.0316 µM, first compound 0.1 µM
# [3] = second compound 0.0316 µM, first compound 0.316 µM
# [4] = second compound 0.0316 µM, first compound 1 µM
# [5] = second compound 0.0316 µM, first compound 3.16 µM
# [6] = second compound 0.0316 µM, first compound 10 µM
# [7] = second compound 0.1 µM, first compound 0.0316 µM
# [8] = second compound 0.1 µM, first compound 0.1 µM
# [9] = second compound 0.1 µM, first compound 0.316 µM
# [10] = second compound 0.1 µM, first compound 1 µM
# [11] = second compound 0.1 µM, first compound 3.16 µM
# [12] = second compound 0.1 µM, first compound 10 µM
# [13] = second compound 0.316 µM, first compound 0.0316 µM
# [14] = second compound 0.316 µM, first compound 0.1 µM
# [15] = second compound 0.316 µM, first compound 0.316 µM
# [16] = second compound 0.316 µM, first compound 1 µM
# [17] = second compound 0.316 µM, first compound 3.16 µM
# [18] = second compound 0.316 µM, first compound 10 µM
# [19] = second compound 1 µM, first compound 0.0316 µM
# [20] = second compound 1 µM, first compound 0.1 µM
# [21] = second compound 1 µM, first compound 0.316 µM
# [22] = second compound 1 µM, first compound 1 µM
# [23] = second compound 1 µM, first compound 3.16 µM
# [24] = second compound 1 µM, first compound 10 µM
# [25] = second compound 3.16 µM, first compound 0.0316 µM
# [26] = second compound 3.16 µM, first compound 0.1 µM
# [27] = second compound 3.16 µM, first compound 0.316 µM
# [28] = second compound 3.16 µM, first compound 1 µM
# [29] = second compound 3.16 µM, first compound 3.16 µM
# [30] = second compound 3.16 µM, first compound 10 µM
# [31] = second compound 10 µM, first compound 0.0316 µM
# [32] = second compound 10 µM, first compound 0.1 µM
# [33] = second compound 10 µM, first compound 0.316 µM
# [34] = second compound 10 µM, first compound 1 µM
# [35] = second compound 10 µM, first compound 3.16 µM
# [36] = second compound 10 µM, first compound 10 µM
# 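Further: spheroids exposed to compounds for seven days before reading.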
# 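Wherever viability, T/C is given: percent viability relative to DMSO vehicle control taken as 100%.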
compound,measurement,setting,value
COc1cccc2c1C(=O)c1c(O)c3c(c(O)c1C2=O)CC(O)(C(=O)CO)CC3OC1CC(N)C(O)C(C)O1 (centres undefined) + CN(C)c1ccc(Nc2c3ccc(NC(=O)CCN4CCCC4)cc3nc3cc(NC(=O)CCN4CCCC4)ccc23)cc1,IC50,second compound 0.0316 µM,0.596 µM
same,IC50,second compound 0.1 µM,0.613 µM
same,IC50,second compound 0.316 µM,0.9 µM
same,IC50,second compound 1 µM,0.76 µM
same,IC50,second compound 3.16 µM,0.562 µM
same,IC50,second compound 10 µM,1 µM
same,"viability, T/C",[1],95.2%
same,"viability, T/C",[2],66.8%
same,"viability, T/C",[3],64.3%
same,"viability, T/C",[4],42.9%
same,"viability, T/C",[5],32%
same,"viability, T/C",[6],32.3%
same,"viability, T/C",[7],103%
same,"viability, T/C",[8],73%
same,"viability, T/C",[9],56.8%
same,"viability, T/C",[10],48.8%
same,"viability, T/C",[11],33.9%
same,"viability, T/C",[12],37.9%
same,"viability, T/C",[13],89.5%
same,"viability, T/C",[14],66.3%
same,"viability, T/C",[15],65.7%
same,"viability, T/C",[16],48.3%
same,"viability, T/C",[17],37.8%
same,"viability, T/C",[18],37.5%
same,"viability, T/C",[19],72.2%
same,"viability, T/C",[20],59.5%
same,"viability, T/C",[21],55.5%
same,"viability, T/C",[22],51%
same,"viability, T/C",[23],40.4%
same,"viability, T/C",[24],33%
same,"viability, T/C",[25],74.3%
same,"viability, T/C",[26],68.5%
same,"viability, T/C",[27],56%
same,"viability, T/C",[28],44.8%
same,"viability, T/C",[29],35.1%
same,"viability, T/C",[30],36.5%
same,"viability, T/C",[31],93%
same,"viability, T/C",[32],69.4%
same,"viability, T/C",[33],65.9%
same,"viability, T/C",[34],48.1%
same,"viability, T/C",[35],41.1%
same,"viability, T/C",[36],33%
Nc1ccn(C2OC(CO)C(O)C2(F)F)c(=O)n1 (centres undefined) + CN(C)c1ccc(Nc2c3ccc(NC(=O)CCN4CCCC4)cc3nc3cc(NC(=O)CCN4CCCC4)ccc23)cc1,IC50,second compound 0.0316 µM,3.23 µM
same,IC50,second compound 0.1 µM,0.869 µM
same,IC50,second compound 0.316 µM,1.08 µM
same,IC50,second compound 1 µM,0.451 µM
same,IC50,second compound 3.16 µM,0.277 µM
same,IC50,second compound 10 µM,> 10 µM
same,"viability, T/C",[1],89.5%
same,"viability, T/C",[2],71.6%
same,"viability, T/C",[3],74.6%
same,"viability, T/C",[4],54.4%
same,"viability, T/C",[5],52.5%
same,"viability, T/C",[6],41.5%
same,"viability, T/C",[7],104%
same,"viability, T/C",[8],70.8%
same,"viability, T/C",[9],66.5%
same,"viability, T/C",[10],43.5%
same,"viability, T/C",[11],44.6%
same,"viability, T/C",[12],39.2%
same,"viability, T/C",[13],91.4%
same,"viability, T/C",[14],68.4%
same,"viability, T/C",[15],54.4%
same,"viability, T/C",[16],57.1%
same,"viability, T/C",[17],48.2%
same,"viability, T/C",[18],36.5%
same,"viability, T/C",[19],72.7%
same,"viability, T/C",[20],59%
same,"viability, T/C",[21],57.6%
same,"viability, T/C",[22],39.6%
same,"viability, T/C",[23],41.3%
same,"viability, T/C",[24],34.7%
same,"viability, T/C",[25],75.6%
same,"viability, T/C",[26],67.6%
same,"viability, T/C",[27],48.7%
same,"viability, T/C",[28],35%
same,"viability, T/C",[29],39.4%
same,"viability, T/C",[30],39.2%
same,"viability, T/C",[31],73.6%
same,"viability, T/C",[32],57.9%
same,"viability, T/C",[33],57.9%
same,"viability, T/C",[34],50.9%
same,"viability, T/C",[35],51.8%
same,"viability, T/C",[36],49%
